Experimental data taken from ChEMBL document CHEMBL1201862, “PubChem BioAssay data set” (2004).
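Interpolation was linear, between the two tested concentrations surrounding the appropriate level; five concentrations were tested over 48 hours in 96-well plates. Here, GI50 denotes the concentration required for 50% inhibition of growth.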 Active and inactive are the calls of the source. No stated cut-off is given here; in the data, active = GI50 up to about 1.1 µM and inactive = higher.

Legend:
Assay in all cases: NCI anticancer screen, dose series, 48 h
[1] = test system: 786-0
[2] = test system: A549
[3] = test system: ACHN
[4] = test system: CCRF-CEM
[5] = test system: COLO 205
[6] = test system: DLD-1
[7] = test system: DMS-114
[8] = test system: DMS-273
[9] = test system: EKVX
[10] = test system: HCC 2998
[11] = test system: HCT-116
[12] = test system: HCT-15
[13] = test system: HL-60
[14] = test system: HOP-18
[15] = test system: HOP-62
[16] = test system: HOP-92
[17] = test system: HT-29
[18] = test system: IGROV-1
[19] = test system: K562
[20] = test system: KM-20L2
[21] = test system: KM12
[22] = test system: LOX IMVI
[23] = test system: LXFL 529
[24] = test system: M14
[25] = test system: M19-MEL
[26] = test system: MOLT-4
[27] = test system: Malme-3M
[28] = test system: NCI-H226
[29] = test system: NCI-H23
[30] = test system: NCI-H460
[31] = test system: NCI-H522
[32] = test system: OVCAR-3
[33] = test system: OVCAR-4
[34] = test system: OVCAR-5
[35] = test system: OVCAR-8
[36] = test system: RPMI-8226
[37] = test system: RXF 393
[38] = test system: SF-268
[39] = test system: SF-295
[40] = test system: SF-539
[41] = test system: SK-MEL-28
[42] = test system: SK-MEL-2
[43] = test system: SK-MEL-5
[44] = test system: SK-OV-3
[45] = test system: SN12C
[46] = test system: SNB-19
[47] = test system: SNB-75
[48] = test system: SR
[49] = test system: SW-620
[50] = test system: TK-10
[51] = test system: U-251
[52] = test system: UACC-257
[53] = test system: UACC-62
[54] = test system: UO-31
[55] = test system: XF498
[56] = test system: A498
[57] = test system: CAKI-1
[58] = test system: SNB-78
[59] = test system: MCF7
[60] = test system: NCI/ADR-RES

## CC(C)(C1=NC(C(C)(C)C)CO1)C1=N[C@@H](C(C)(C)C)CO1 (some centres not stated)
[1]
  GI50: > 100 µM (inactive)
[2]
  GI50: > 100 µM (inactive)
[3]
  GI50: > 100 µM (inactive)
[4]
  GI50: > 100 µM (inactive)
[5]
  GI50: > 100 µM (inactive)
[6]
  GI50: > 100 µM (inactive)
[7]
  GI50: > 100 µM (inactive)
[8]
  GI50: > 100 µM (inactive)
[9]
  GI50: > 100 µM (inactive)
[10]
  GI50: > 100 µM (inactive)
[11]
  GI50: > 100 µM (inactive)
[12]
  GI50: > 100 µM
[13]
  GI50: > 100 µM (inactive)
[14]
  GI50: > 100 µM (inactive)
[15]
  GI50: > 100 µM (inactive)
[16]
  GI50: > 100 µM (inactive)
[17]
  GI50: > 100 µM (inactive)
[18]
  GI50: > 100 µM (inactive)
[19]
  GI50: > 100 µM (inactive)
[20]
  GI50: > 100 µM (inactive)
[21]
  GI50: > 100 µM (inactive)
[22]
  GI50: > 100 µM (inactive)
[23]
  GI50: > 100 µM (inactive)
[24]
  GI50: > 100 µM (inactive)
[25]
  GI50: > 100 µM (inactive)
[26]
  GI50: > 100 µM (inactive)
[27]
  GI50: > 100 µM (inactive)
[28]
  GI50: > 100 µM (inactive)
[29]
  GI50: > 100 µM (inactive)
[30]
  GI50: > 100 µM (inactive)
[31]
  GI50: > 100 µM (inactive)
[32]
  GI50: > 100 µM (inactive)
[33]
  GI50: > 100 µM (inactive)
[34]
  GI50: > 100 µM (inactive)
[35]
  GI50: > 100 µM (inactive)
[36]
  GI50: > 100 µM (inactive)
[37]
  GI50: > 100 µM (inactive)
[38]
  GI50: > 100 µM (inactive)
[39]
  GI50: > 100 µM (inactive)
[40]
  GI50: > 100 µM (inactive)
[41]
  GI50: > 100 µM (inactive)
[42]
  GI50: > 100 µM (inactive)
[43]
  GI50: > 100 µM (inactive)
[44]
  GI50: > 100 µM (inactive)
[45]
  GI50: > 100 µM (inactive)
[46]
  GI50: > 100 µM (inactive)
[47]
  GI50: > 100 µM (inactive)
[48]
  GI50: > 100 µM (inactive)
[49]
  GI50: > 100 µM (inactive)
[50]
  GI50: > 100 µM (inactive)
[51]
  GI50: > 100 µM (inactive)
[52]
  GI50: > 100 µM (inactive)
[53]
  GI50: > 100 µM (inactive)
[54]
  GI50: > 100 µM (inactive)
[55]
  GI50: > 100 µM (inactive)

## OC(c1ccccc1)(c1ccccc1)c1cccnc1
[1]
  GI50: > 100 µM (inactive)
[56]
  GI50: > 100 µM (inactive)
[2]
  GI50: > 100 µM (inactive)
[3]
  GI50: > 100 µM (inactive)
[57]
  GI50: > 100 µM (inactive)
[4]
  GI50: > 100 µM (inactive)
[5]
  GI50: > 100 µM (inactive)
[6]
  GI50: > 100 µM (inactive)
[7]
  GI50: > 100 µM (inactive)
[8]
  GI50: > 100 µM (inactive)
[9]
  GI50: > 100 µM (inactive)
[10]
  GI50: > 100 µM (inactive)
[11]
  GI50: > 100 µM (inactive)
[12]
  GI50: > 100 µM
[14]
  GI50: > 100 µM (inactive)
[15]
  GI50: > 100 µM (inactive)
[17]
  GI50: > 100 µM (inactive)
[18]
  GI50: > 100 µM (inactive)
[19]
  GI50: > 100 µM (inactive)
[20]
  GI50: > 100 µM (inactive)
[21]
  GI50: > 100 µM (inactive)
[22]
  GI50: > 100 µM (inactive)
[24]
  GI50: > 100 µM (inactive)
[25]
  GI50: > 100 µM (inactive)
[27]
  GI50: > 100 µM (inactive)
[28]
  GI50: > 100 µM (inactive)
[29]
  GI50: > 100 µM (inactive)
[30]
  GI50: > 100 µM (inactive)
[32]
  GI50: > 100 µM (inactive)
[33]
  GI50: > 100 µM (inactive)
[34]
  GI50: > 100 µM (inactive)
[35]
  GI50: > 100 µM (inactive)
[36]
  GI50: > 100 µM (inactive)
[38]
  GI50: > 100 µM (inactive)
[39]
  GI50: > 100 µM (inactive)
[40]
  GI50: > 100 µM (inactive)
[41]
  GI50: > 100 µM (inactive)
[42]
  GI50: > 100 µM (inactive)
[43]
  GI50: > 100 µM (inactive)
[44]
  GI50: > 100 µM (inactive)
[45]
  GI50: > 100 µM (inactive)
[46]
  GI50: > 100 µM (inactive)
[47]
  GI50: 86.1 µM (inactive)
[58]
  GI50: > 100 µM (inactive)
[49]
  GI50: > 100 µM (inactive)
[50]
  GI50: > 100 µM (inactive)
[51]
  GI50: > 100 µM (inactive)
[52]
  GI50: > 100 µM (inactive)
[53]
  GI50: > 100 µM (inactive)
[54]
  GI50: > 100 µM (inactive)
[55]
  GI50: > 100 µM (inactive)

## N/C(=N\O)N/N=C/c1ccc2c(c1)OCCO2
[56]
  GI50: 27.2 µM (inactive)
[2]
  GI50: 4.7 µM (inactive)
[57]
  GI50: 16.4 µM (inactive)
[4]
  GI50: 33.7 µM (inactive)
[5]
  GI50: 7.28 µM (inactive)
[6]
  GI50: 19.7 µM (inactive)
[7]
  GI50: > 28.2 µM (inactive)
[8]
  GI50: 16.6 µM (inactive)
[9]
  GI50: 9.27 µM (inactive)
[11]
  GI50: 21.7 µM (inactive)
[12]
  GI50: 10.3 µM
[13]
  GI50: 18.2 µM (inactive)
[14]
  GI50: 24.2 µM (inactive)
[15]
  GI50: 19.8 µM (inactive)
[16]
  GI50: 27 µM (inactive)
[17]
  GI50: 8.53 µM (inactive)
[18]
  GI50: 12.4 µM (inactive)
[19]
  GI50: 7.85 µM (inactive)
[20]
  GI50: 4.13 µM (inactive)
[21]
  GI50: 5.04 µM (inactive)
[22]
  GI50: 8.09 µM (inactive)
[25]
  GI50: > 33 µM (inactive)
[59]
  GI50: 22.1 µM (inactive)
[26]
  GI50: 19.1 µM (inactive)
[28]
  GI50: 4.08 µM (inactive)
[29]
  GI50: 25.6 µM (inactive)
[30]
  GI50: 7.55 µM (inactive)
[31]
  GI50: 6.65 µM (inactive)
[60]
  GI50: 11.1 µM (inactive)
[32]
  GI50: 3.15 µM (inactive)
[33]
  GI50: 8.91 µM (inactive)
[34]
  GI50: 4.72 µM (inactive)
[35]
  GI50: 8.49 µM (inactive)
[36]
  GI50: 16.8 µM (inactive)
[37]
  GI50: 27.9 µM (inactive)
[38]
  GI50: 4.81 µM (inactive)
[39]
  GI50: 6.59 µM (inactive)
[40]
  GI50: 17.1 µM (inactive)
[41]
  GI50: 21.4 µM (inactive)
[42]
  GI50: 9.08 µM (inactive)
[43]
  GI50: 7.21 µM (inactive)
[44]
  GI50: 34 µM (inactive)
[45]
  GI50: 29.6 µM (inactive)
[46]
  GI50: 9.82 µM (inactive)
[47]
  GI50: 29.9 µM (inactive)
[58]
  GI50: 57.7 µM (inactive)
[49]
  GI50: 28.2 µM (inactive)
[51]
  GI50: 21.3 µM (inactive)
[52]
  GI50: 18.6 µM (inactive)
[54]
  GI50: 8.65 µM (inactive)
[55]
  GI50: 8.79 µM (inactive)
